Where “and” joins values, the source holds several entries; their conditions need not be identical. Equal values may be shown once. Entries after “also recorded” stand apart in the source; their conditions may differ.

Data set [1] concerns dorsal horn neurones. Nature of the data set: whole-cell patch clamp recording in spinal cord slices from Chung models of neuropathic pain: membrane properties of dorsal horn neurones. The class given is cell-based, rat. The following applies: for Membrane Potential, mean in presence of peptide: ipsilateral to injury; for Normalised Input Resistance, mean in presence of peptide / Normalised Input Resistance, ΔIR: control = 100; for reversal potential of peptide-induced response (intersection of VI relations): individual neurones; for Normalised Membrane Potential, mean in presence of peptide / Normalised Membrane Potential, ΔVm: rest = 100. The source says: (§1) An in vitro spinal cord slice with intact dorsal root afferents combined with single-cell whole-cell patch clamp electrophysiological recording techniques was used to assess the electrophysiological properties of the peptides having the amino acid sequence of SEQ ID NO:2, 3, 4 and 5.
The spinal nerve ligation model (Chung model) was first reported by Kim and Chung (1992; Pain, 50(3):355-63) and involves a single tight ligation of the L5 spinal nerve. […] This model has been used as a “gold standard” model for assessing the efficacy of novel compounds targeting neuropathic pain.
Adult male Sprague-Dawley rats, 8-9 weeks old, weighing 220-250 g at the time of surgery, were purchased from Charles River UK Ltd. The animals were housed in groups of 4 in an air-conditioned room on a 12-hour light/dark cycle. Food and water were available ad libitum. They were allowed to acclimatise to the experimental environment for three days by leaving them on a raised metal mesh for at least 40 min. The baseline paw withdrawal threshold (PWT) was examined using a series of graduated von Frey hairs for 3 consecutive days before surgery and re-assessed on the 6th to 8th day after surgery and on the 12th to 14th day after surgery before drug dosing. Each rat was anaesthetized with 5% isoflurane mixed with oxygen (2L per min) followed by an intramuscular (i.m.) injection of ketamine 90 mg/kg plus xylazine 10 mg/kg. The back was shaved and sterilized with povidone-iodine. The animal was placed in a prone position and a para-medial incision was made on the skin covering the L4-6 level. The L5 spinal nerve was carefully isolated and tightly ligated with 6/0 silk suture. The wound was then closed in layers after a complete hemostasis. A single dose of antibiotics (Amoxipen, 15 mg/rat, i.p.) was routinely given for prevention of infection after surgery. The animals were placed in a temperature-controlled recovery chamber until fully awake before being returned to their home cages.
(§2) Chung model rats, aged 8 to 12 weeks, were housed in an air-conditioned room on a 12 hour light/dark cycle with food and water available ad libitum. The rats were terminally anaesthetized using isofluorane and decapitated. The vertebral column, rib cage and surrounding tissues were rapidly removed and pinned under ice-cold (<4° C.), high sucrose-containing artificial cerebrospinal fluid (aCSF) comprising: 127 mM sucrose, 1.9 mM KCl, 1.2 mM KH2PO4, 0.24 mM CaCl2, 3.9 mM MgCl2, 26 mM NaHCO3, 10 mM D-glucose and 0.5 mM ascorbic acid. A laminectomy was performed and the spinal cord and associated roots gently dissected and teased out of the spinal column and surrounding tissues. Dura and pia mater and ventral roots were subsequently removed with fine forceps and the spinal cord hemisected. Care was taken to ensure dorsal root inputs to the spinal cord were maintained. The hemisected spinal cord-dorsal root preparations were secured to a tissue slicer and spinal cord slices (400 to 450 μm thick) with dorsal roots attached were cut in chilled (<4° C.) high sucrose aCSF using a Leica VT1000s microtome.
(§3) Slices were transferred to a small beaker containing ice cold aCSF with 127 mM NaCl, 1.9 mM KCl, 1.2 mM KH2PO4, 1.3 mM MgCl2, 2.4 mM CaCl2, 26 mM NaHCO3 and 10 mM D-glucose, and rapidly warmed to 35° C. ±1° C. in a temperature-controlled water bath over a 20 minute period, then subsequently removed and maintained at room temperature (22° C. ±2° C.) prior to electrophysiological recording. Electrophysiological recording was performed in aCSF comprising 127 mM NaCl, 1.9 mM KCl, 1.2 mM KH2PO4, 1.3 mM MgCl2, 2.4 mM CaCl2, 26 mM NaHCO3 and 10 mM D-glucose.
Whole-cell recordings were performed at 34-35° C. from Lamina I or II neurones in the dorsal horn of the spinal cord slices using Axopatch 1D and/or Multiclamp 700B amplifies and using the “blind” version of the patch-clamp technique. […]
For orientation: The patch-clamp technique gives a direct electrical read-out from membranes.

Data set [2] has as its system dorsal root afferent-mediated synaptic inputs to dorsal horn neurones. Nature of the data set: whole-cell recording in spinal cord slices from Chung models: dorsal root afferent-mediated synaptic inputs (evoked EPSPs/IPSPs). The class given is cell-based, rat. Particulars: for effect on dorsal root-evoked EPSPs / excitatory synaptic transmission (in words) / effect on dorsal root-evoked IPSPs / inhibitory synaptic transmission (in words): peptide 5 μM, dorsal root stimulation 0.1 Hz. As for the experimental part: as §1, §2, §3
Whole-cell recordings were performed at 34-35° C. from Lamina I or II neurones in the dorsal horn of the spinal cord slices using Axopatch 1D and/or Multiclamp 700B amplifies and using the “blind” version of the patch-clamp technique.
Patch pipettes were pulled from thin-walled borosilicate glass with resistances of between 3 and 8 MS2 when filled with intracellular solution (140 mM potassium gluconate, 10 mM KCl, 1 mM EGTA-Na, 10 mM HEPES, 4 mM Na2ATP, 0.3 mM Na-GTP). The peptides of SEQ ID NOs:2, 3, 4 or 5 (LAT7771, LAT7772, LAT7773 or LAT7774) were diluted in the tissue bath at a concentration of 5 μM.
A concentric bipolar stimulating electrode was placed appropriately either on the dorsal root or dorsal root entry zone to evoke postsynaptic potentials/currents in recorded cells (see FIG. 1). […] EPSPs/EPSCs were confirmed as monosynaptic on the basis of being characterised by a constant latency and rise-time with few failures.
Recordings were monitored on an oscilloscope and stored on digital audio tapes for later off-line analysis. In addition, data were low-pass filtered at 2-5 kHz, (1 kHz for voltage-clamp data), digitized at 2-10 kHz and stored on a PC running pCLAMP 10 data acquisition software (Axon Instruments). Analysis of electrophysiological data was carried out using Clampfit 10 software.

The subject of data set [3] is Chung model of neuropathic pain. Nature of the data set: paw withdrawal threshold (von Frey) in Chung model of neuropathic pain, oral or intramuscular administration. The following applies: for paw withdrawal threshold (PWT) / reversal of mechanical allodynia: 2 hours after administration, ipsilateral side. The class given is in vivo, rat. The source says:
Chung model of neuropathic pain was used to compare the in vivo efficacy of LAT8881 and LAT7771 administered orally or intramuscularly.
The spinal nerve ligation model (Chung model) was first reported by Kim and Chung (1992; Pain, 50(3):355-63) and involves a single tight ligation of the L5 spinal nerve. […] This model has been used as a “gold standard' model for assessing the efficacy of novel compounds targeting neuropathic pain.
Adult male Sprague-Dawley rats, 8-9 weeks old, weighing 220-250 g at the time of surgery, were anaesthetised with 3% isoflurane mixed with oxygen followed by an intramuscular injection of a mixture of ketamine and xylazine. The back was shaved and sterilised with povidone-iodine soaked cotton balls. The L5 spinal nerve was carefully isolated and tightly located with 6/0 silk suture and the wound was closed in layers. The single-dose antibiotics (Amoxipen, 100 mg/kg, i.p.) was routinely given for prevention of infection after surgery.
The animals were placed in individual Perspex boxes on a raised metal mesh for at least 40 minutes. Starting with the filament of lowest force (1 g), each filament was applied perpendicularly to the centre of the ventral surface of the paw until slightly bent for 6 seconds. If the animal withdrew or lifted its paw upon stimulation, a von Frey hair with force immediately lower than that tested was subsequently used. If no response was observed, then a hair with force immediately higher was tested. The lowest amount of force required to induce reliable responses (positive in 2 out of 3 trials) was recorded as the value of […] (PWT).
PWT was assessed once daily for three days before surgery and once a week for monitoring the development of mechanical allodynia.
All drug tests were carried out on the 13th to 17th day after surgery. All drug dosing was ‘blindly’ carried out by a second experimenter. The test compounds were administered and PWT was assessed before and 2 hours following drug or vehicle (5% DMSO) administration.

A short description of data set [4]: solubility in distilled water.
The mark [5] stands for this setting: LAT8881, concentration not given, one neurone.

As for “CRIIHNNNC [LAT7771, C-terminal fragment of human prolactin spanning residues 219-227 of human prolactin precursor]”, in data set [1] (peptide 5 μM), the “effect on inward rectification (in words)” value is “enhancement or increase in the strength of inward rectification; also recorded: enhanced inward rectification”; the “effect on membrane potential / postsynaptic membrane properties (in words)” value was “little effect on a further 3 dorsal horn neurones; also recorded: principally induced membrane depolarisation; also recorded: membrane depolarisation and an increase in spontaneous firing; also recorded: minimal membrane depolarisation; also recorded: little or no effect on postsynaptic properties”; the “effect on neuronal input resistance (in words)” value is “little change in neuronal input resistance; also recorded: marginal increase in neuronal input resistance”; the “Normalised Input Resistance, mean in presence of peptide” value is 94.8. In addition, in data set [1] (peptide 5 μM), the “Normalised Input Resistance, ΔIR” value was determined as 5.2; the “reversal potential of peptide-induced response (intersection of VI relations)” value was −55 mV (2×) and −45 mV and −40 mV; the “Normalised Membrane Potential, mean in presence of peptide” value is 94.8; the “Normalised Membrane Potential, ΔVm” value was 5.2. This sequence also displayed a change in neuronal input resistance in data set [1] (peptide 5 μM vs control) of 15.8 ± 36.1 MΩ. Further, the “ΔIR, change in neuronal input resistance” value in data set [1] (peptide 5 μM vs control, table prints control minus drug, text the magnitude) is given as −15.8 MΩ. Moreover, in data set [1] (peptide 5 μM, all cells), the “Input Resistance, mean in presence of peptide” value stood at 447.6 MΩ; the “neuronal input resistance in the presence of peptide” value was 447.6±119.4 MS2; the “Membrane Potential, mean in presence of peptide” value was −53.8±2.8 mV and −53.8 mV. In data set [2], the “effect on dorsal root-evoked EPSPs / excitatory synaptic transmission (in words)” value is reported as “In four neurones, dorsal root evoked EPSPs at a frequency of 0.1 Hz were reduced; also recorded: consistently reduced dorsal root-evoked EPSPs; also recorded: EPSPs were suppressed” and the “effect on dorsal root-evoked IPSPs / inhibitory synaptic transmission (in words)” value is “In two of these neurones, suppression of EPSPs uncovered or activated IPSPs; also recorded: in two neurones promoted inhibitory synaptic transmission; also recorded: enhanced inhibitory synaptic transmission”. In addition, the “effect on dorsal root-evoked IPSPs (in words)” value in data set [2] (prolactin 500 nM, 0.1 Hz and 5 Hz) is given as “lack of effect”. Moreover, in data set [3] (10 mg/kg intramuscularly (IM)), the “paw withdrawal threshold (PWT) / reversal of mechanical allodynia” value was “significantly increased the PWT”. In data set [3] (10 mg/kg orally (PO)), the “paw withdrawal threshold (PWT) / reversal of mechanical allodynia” value is listed as “significantly increased the PWT”. The “analgesic properties in vivo” value in data set [3] (compared with LAT8881) is reported as “comparable to that of LAT8881”.
Regarding CRIVYDSNC [LAT7773], in data set [1] (peptide 5 μM), the “effect on inward rectification (in words)” value was “enhancing inward rectification; also recorded: enhanced inward rectification”; the “effect on neuronal input resistance (in words)” value was “variable effects on input resistance inducing a decrease in 4 neurones and an increase in 5 neurones; also recorded: small increase in neuronal input resistance”; the “Normalised Input Resistance, mean in presence of peptide” value was 99.9; the “Normalised Input Resistance, ΔIR” value was found to be 0.1. In addition, in data set [1] (peptide 5 μM), the “reversal potential of peptide-induced response (intersection of VI relations)” value is reported as “no clear reversal potential in 7 neurones; also recorded: around −93 mV; also recorded: around −92 mV”; the “Normalised Membrane Potential, mean in presence of peptide” value worked out at 88.4; the “Normalised Membrane Potential, ΔVm” value came out at 11.6. For the same sequence, in data set [1] (peptide 5 μM, all cells), the “Input Resistance, mean in presence of peptide” value is 373.5±103.6 MΩ and 373.5 MΩ; the “Membrane Potential, mean in presence of peptide” value is −50.3±3.0 mV and −50.3 mV. Besides, the “membrane hyperpolarisation in individual neurones” value in data set [1] (peptide 5 μM, responding neurones) is reported as 7.6 mV. Moreover, in data set [2], the “effect on dorsal root-evoked EPSPs / excitatory synaptic transmission (in words)” value was “In three neurones electrical stimulation of dorsal roots (0.1 Hz) evoked EPSPs that were suppressed; also recorded: In two other neurones EPSPs, and in one of these IPSPs, were enhanced; also recorded: remaining two neurones showed no change; also recorded: in some neurones depressed whilst in others they were clearly potentiated; also recorded: reducing dorsal root afferent-mediated synaptic inputs; also recorded: little effect on dorsal root afferent-mediated excitatory synaptic transmission; also recorded: increase in dorsal root afferent-mediated synaptic transmission”; the “effect on dorsal root-evoked IPSPs / inhibitory synaptic transmission (in words)” value is “in one of these IPSPs, were enhanced; also recorded: both EPSPs and IPSPs were enhanced”. In data set [4], the “solubility in distilled water” value is listed as “soluble”.
For “YLRIVQCRSVEGSCGF [LAT8881, human growth hormone derived analgesic compound of PCT/AU2019/050020, reference compound]”, in data set [1] (LAT8881, concentration not given, one neurone, after wash of LAT7771), the “effect on postsynaptic properties (in words)” value is recorded as “little or no effect on postsynaptic properties”. In data set [2] (setting [5]), the “effect on dorsal root-evoked EPSPs (in words)” value is reported as “suppressing EPSPs” and the “effect on inhibitory synaptic transmission / IPSPs (in words)” value is “partly mimicked by LAT8881; also recorded: enhanced inhibitory synaptic transmission”. Moreover, the “paw withdrawal threshold (PWT) / reversal of mechanical allodynia” value in data set [3] (10 mg/kg intramuscularly (IM)) is reported as “reversed mechanical allodynia; also recorded: significantly increased the PWT”. In addition, the “paw withdrawal threshold (PWT) / reversal of mechanical allodynia” value in data set [3] (10 mg/kg orally (PO)) is reported as “reversed mechanical allodynia; also recorded: significantly increased the PWT”.

The record behind these values is US20220354929A1, “PEPTIDES AND USES THEREOF” (LATERAL IP PTY LTD, priority 2019, published 2022).
